Test systems include RXF 393 renal; NCI-H460 lung; SK-MEL-2 melanoma; HCC-2998 colon; A498 renal; UACC-62 melanoma; M14 melanoma; OVCAR-4 ovarian; SW-620 colon; KM12 colon.
Test in all cases: NCI tumour cell line growth inhibition, 48 h

Molecules are shown by their SMILES.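 Where inhibition never reached the appropriate level, the endpoint shown equals the highest concentration tested. Otherwise, values were interpolated linearly from a five-concentration, 48-hour dose response in 96-well plates. GI50: concentration for 50% inhibition of growth. TGI is the concentration that stops growth completely.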

`CCC1N2CCCCC2[C@@H]2c3[nH]c4ccccc4c3CCN12` (stereo partly drawn): the TGI with RXF 393 renal, in the experiment on NCI-H460 lung, in the experiment with SK-MEL-2 melanoma, in the experiment on HCC-2998 colon, in the experiment with A498 renal and with UACC-62 melanoma was over 100 µM each time. In addition, the TGI in the experiment on M14 melanoma, in the experiment on OVCAR-4 ovarian and with SW-620 colon was over 100 µM throughout.
Consider `O=c1cc(-c2ccccc2)oc2cc(OCc3cn(Cc4ccc(F)cc4)nn3)cc(O)c12`, for which the GI50 was 3.58 µM with RXF 393 renal; over 100 µM with KM12 colon; 6.8 µM in the experiment with SK-MEL-2 melanoma; over 100 µM in the experiment on HCC-2998 colon; 42 µM in the experiment with A498 renal; over 100 µM in the experiment on M14 melanoma. The GI50 in the experiment on SW-620 colon was over 100 µM. Moreover, the TGI in the experiment on RXF 393 renal is 30.1 µM; with KM12 colon it was over 100 µM; with SK-MEL-2 melanoma, 36.1 µM; in the experiment with HCC-2998 colon, over 100 µM; with A498 renal, over 100 µM; with M14 melanoma it was over 100 µM. The compound also registered a TGI with SW-620 colon of over 100 µM.
On to `CC(=O)OC1C(O)COC(Oc2c(C)c3c4c(c2O)[C@@H](C)CC[C@@H]4[C@@H](C)C[C@H]3C=C(C)C)C1O` (stereo partly drawn), for which the GI50 is 7.81 µM in the experiment on RXF 393 renal; 14.8 µM with KM12 colon; 16.3 µM with NCI-H460 lung; 42.7 µM in the experiment with SK-MEL-2 melanoma; 18.7 µM with HCC-2998 colon; 16.6 µM in the experiment with A498 renal. Besides, the results for the GI50 in the experiment with UACC-62 melanoma, in the experiment on M14 melanoma and in the experiment on OVCAR-4 ovarian were 16.3 µM, 14.6 µM and 16.8 µM, respectively. The TGI was 25.4 µM in the experiment with RXF 393 renal; 30.8 µM in the experiment with KM12 colon; 47.1 µM in the experiment on NCI-H460 lung; over 100 µM with SK-MEL-2 melanoma; 43.6 µM in the experiment on HCC-2998 colon; 32.7 µM in the experiment with A498 renal. Also, the TGI in the experiment on UACC-62 melanoma was found to be 36 µM; in the experiment with M14 melanoma, 31.5 µM; with OVCAR-4 ovarian, 47.1 µM.
As for `COc1cc2c(c(OC)c1OC)C(=O)c1c-2n(CCCN)c(=O)c2cc([N+](=O)[O-])ccc12`, the GI50 in the experiment with KM12 colon is 0.161 µM; in the experiment on NCI-H460 lung it was 0.562 µM; in the experiment on SK-MEL-2 melanoma, 5.45 µM; in the experiment with HCC-2998 colon it was 0.299 µM; in the experiment with A498 renal, 1.41 µM; with UACC-62 melanoma, 9.16 µM. The GI50 is 1.35 µM in the experiment with M14 melanoma, 0.372 µM with OVCAR-4 ovarian and 0.31 µM in the experiment on SW-620 colon. For the same compound, the TGI with KM12 colon is 0.369 µM; in the experiment with SK-MEL-2 melanoma, 11.6 µM; with HCC-2998 colon, 0.804 µM; in the experiment on A498 renal, 2.99 µM; in the experiment on UACC-62 melanoma, 24.2 µM; with M14 melanoma it was 2.82 µM. In addition, the TGI in the experiment on OVCAR-4 ovarian turned out to be 1.47 µM; in the experiment with SW-620 colon, 3.3 µM.
With `CCC(=O)[O-].CCC(=O)[O-].N.N.N.N.[Co+3].[O-][Cl+3]([O-])([O-])[O-]`, the GI50 in the experiment with KM12 colon, in the experiment with NCI-H460 lung, in the experiment with SK-MEL-2 melanoma, in the experiment with HCC-2998 colon, with A498 renal and in the experiment with UACC-62 melanoma was over 100 µM in each case. Moreover, the GI50 in the experiment on M14 melanoma, in the experiment on OVCAR-4 ovarian and with SW-620 colon was over 100 µM each time. For the same compound, the TGI with KM12 colon, with NCI-H460 lung, with SK-MEL-2 melanoma, in the experiment with HCC-2998 colon, with A498 renal and with UACC-62 melanoma was over 100 µM throughout. For the same compound, the TGI in the experiment with M14 melanoma, in the experiment with OVCAR-4 ovarian and in the experiment with SW-620 colon was over 100 µM each time.
For `C#Cc1cccc(N2C(=O)CC(=P(c3ccccc3)(c3ccccc3)c3ccccc3)C2=O)c1`, the TGI with NCI-H460 lung, with SK-MEL-2 melanoma, in the experiment on HCC-2998 colon, with A498 renal, with UACC-62 melanoma and in the experiment with M14 melanoma was over 100 µM throughout. In addition, the TGI with OVCAR-4 ovarian and in the experiment with SW-620 colon was over 100 µM each time.
For the compound `CC(C)c1cccc2sc(NC(=O)C(=O)CC(=O)c3ccc(F)cc3)nc12`, the TGI with RXF 393 renal, in the experiment on KM12 colon, in the experiment with NCI-H460 lung, in the experiment with SK-MEL-2 melanoma, in the experiment on A498 renal and with UACC-62 melanoma was over 100 µM in each case. In addition, the TGI in the experiment with M14 melanoma, in the experiment on OVCAR-4 ovarian and with SW-620 colon was over 100 µM throughout.
In the case of `c1ccc(CN2CCC3(CC2)ONC2=NCCN23)cc1`, the GI50 in the experiment on RXF 393 renal is 88.1 µM; with KM12 colon it was 58.5 µM; in the experiment on NCI-H460 lung, 86.5 µM; in the experiment with SK-MEL-2 melanoma, over 100 µM; in the experiment with A498 renal, over 100 µM; in the experiment with UACC-62 melanoma, 70.8 µM. Moreover, the GI50 is over 100 µM with M14 melanoma, over 100 µM in the experiment with OVCAR-4 ovarian and 75 µM in the experiment on SW-620 colon. The TGI with RXF 393 renal, with KM12 colon, in the experiment on NCI-H460 lung, in the experiment on SK-MEL-2 melanoma, with A498 renal and in the experiment on UACC-62 melanoma was over 100 µM in each case. Moreover, the TGI in the experiment with M14 melanoma, with OVCAR-4 ovarian and with SW-620 colon was over 100 µM in each case.
For the compound `Cc1occc1C(=S)Nc1ccc(Cl)c(C(=O)OCC2CC2)c1`, the TGI with KM12 colon is 96.3 µM; in the experiment on NCI-H460 lung it was over 100 µM; in the experiment on SK-MEL-2 melanoma, over 100 µM; in the experiment with HCC-2998 colon, over 100 µM; in the experiment with A498 renal, over 100 µM; with UACC-62 melanoma, over 100 µM. Moreover, the TGI in the experiment with M14 melanoma, with OVCAR-4 ovarian and in the experiment with SW-620 colon was over 100 µM throughout.
For the compound `NC(N)=NS(=O)(=O)c1ccc(NC(=O)c2ccc(Cl)c3c(Nc4ccc(S(=O)(=O)N=C(N)N)cc4)c4ccccc4nc23)cc1`, the TGI in the experiment with RXF 393 renal, with KM12 colon, in the experiment with NCI-H460 lung, with SK-MEL-2 melanoma, with A498 renal and in the experiment on UACC-62 melanoma was over 100 µM throughout. In addition, the TGI in the experiment on M14 melanoma, in the experiment with OVCAR-4 ovarian and with SW-620 colon was over 100 µM throughout.
In the case of `c1ccc2c(c1)[Se]c1ccccc1[Se]2`, the TGI in the experiment with RXF 393 renal, with KM12 colon, in the experiment with NCI-H460 lung, with SK-MEL-2 melanoma, in the experiment with A498 renal and with UACC-62 melanoma was over 100 µM throughout. Also, the TGI was over 100 µM with M14 melanoma, 67.1 µM in the experiment on OVCAR-4 ovarian and over 100 µM in the experiment on SW-620 colon.
